Test results from ChEMBL document CHEMBL4311943, “3-[(1S,2S,3R)-2,3-Difluoro-1-hydroxy-7-methylsulfonylindan-4-yl]oxy-5-fluorobenzonitrile (PT2977), a Hypoxia-Inducible Factor 2α (HIF-2α) Inhibitor for the Treatment of Clear Cell Renal Cell Carcinoma” (J Med Chem, 2019).
Values after ≈ are worked out from the molar mass of the structure shown. Active and inactive are the calls of the source. No cut-off for these calls is given here.

What was measured:
[1] = target: T1, UDP-glucuronosyltransferase 2B17 (Homo sapiens, UniProt O75795); test: Substrate activity at recombinant human UGT2B17 expressed in baculovirus infected insect cell membranes assessed as enzyme-mediated glucuronidation by measuring Vmax per mg protein at 50 uM preincubated for 5 mins followed by UDPGA addition and measured after 60 mins by LC-MS/MS analysis; assay type: ADME; conditions: 1 h
T1 sequence (O75795 whole entry): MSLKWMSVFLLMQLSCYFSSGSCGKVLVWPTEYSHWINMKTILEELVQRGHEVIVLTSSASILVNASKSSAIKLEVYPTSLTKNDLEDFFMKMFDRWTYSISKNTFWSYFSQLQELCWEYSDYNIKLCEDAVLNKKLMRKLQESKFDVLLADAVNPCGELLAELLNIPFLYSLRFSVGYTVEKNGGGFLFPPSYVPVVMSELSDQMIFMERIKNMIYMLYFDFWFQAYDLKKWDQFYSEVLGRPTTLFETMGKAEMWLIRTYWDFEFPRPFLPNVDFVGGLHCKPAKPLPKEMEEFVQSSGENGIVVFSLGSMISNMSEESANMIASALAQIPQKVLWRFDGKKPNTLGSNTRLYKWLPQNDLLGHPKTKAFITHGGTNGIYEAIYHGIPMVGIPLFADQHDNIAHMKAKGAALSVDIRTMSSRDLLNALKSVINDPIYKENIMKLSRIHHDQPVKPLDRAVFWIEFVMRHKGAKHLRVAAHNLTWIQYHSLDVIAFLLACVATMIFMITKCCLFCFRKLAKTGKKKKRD

UGT2B17 [2] = target: T2, UGT2B17 (Homo sapiens, UniProt O75795); test: Substrate activity at UGT2B17 in human intestinal microsomes assessed as enzyme-mediated glucuronidation by measuring Km at 2 to 1000 uM preincubated for 5 mins followed by UDPGA addition and measured after 60 mins by LC-MS/MS analysis; assay type: ADME, Intestine
T2 sequence (O75795 whole entry): T1 sequence (O75795 whole entry)

UGT2B17 [3] = target: T2, UGT2B17; test: Substrate activity at recombinant human UGT2B17 expressed in baculovirus infected insect cell membranes assessed as enzyme-mediated glucuronidation by measuring Km at 50 uM preincubated for 5 mins followed by UDPGA addition and measured after 60 mins by LC-MS/MS analysis; assay type: ADME
[4] = target: T1, UDP-glucuronosyltransferase 2B17; test: Substrate activity at UGT2B17 in human intestinal microsomes assessed as enzyme-mediated glucuronidation by measuring Vmax per mg protein at 2 to 1000 uM preincubated for 5 mins followed by UDPGA addition and measured after 60 mins by LC-MS/MS analysis; assay type: ADME, Intestine; conditions: 1 h
[5] = target: UDP-glucuronosyltransferase 1A3 (Homo sapiens, UniProt P35503); test: Substrate activity at recombinant human UGT1A3 expressed in baculovirus infected insect cell membranes assessed as enzyme-mediated glucuronidation by measuring PT2639 formation at 50 uM preincubated for 5 mins followed by UDPGA addition and measured after 60 mins by LC-MS/MS analysis; assay type: ADME; conditions: 1 h
Homo sapiens = test: In vivo inhibition of HIF-2alpha in patient with advanced solid tumor assessed as reduction in EPO expression at >500 ng/ml, po administered once daily; assay type: organism-based
786-0 = test: Antitumor activity against human 786-O cells xenografted in SCID Beige mouse assessed as tumor regression at 10 mg/kg, po administered twice daily via gavage for 3 days measured 12 hrs post-last; assay type: functional, organism-based
[6] = Cmin in patient with advanced solid tumor at 800 mg, po administered twice daily measured on day 15 measured after 12 hrs; conditions: human, in vivo
[7] = Lipophilicity, log D of the compound at pH 7.4; assay type: physicochemical; conditions: buffer
[8] = target: UDP-glucuronosyltransferase 1A7 (Homo sapiens, UniProt Q9HAW7); test: Substrate activity at recombinant human UGT1A7 expressed in baculovirus infected insect cell membranes assessed as enzyme-mediated glucuronidation by measuring PT2639 formation at 50 uM preincubated for 5 mins followed by UDPGA addition and measured after 60 mins by LC-MS/MS analysis; assay type: ADME; conditions: 1 h
[9] = Protein binding in human plasma at 10 uM measured after 4 hrs by LC-MS/MS analysis; assay type: ADME, cell-free; conditions: read-out: PPB (converted)
[10] = Dose normalized AUClast in CD-1 mouse at 10 mg/kg, po administered via gavage by UPLC-MS analysis; assay type: ADME, organism-based; conditions: in vivo
[11] = Drug metabolism in human hepatocytes assessed as PT2639 formation by HPLC-UV analysis; assay type: ADME, cell-based, Hepatocyte
[12] = Thermodynamic aqueous solubility of the compound at pH 7.4; assay type: physicochemical; conditions: buffer, read-out: Therm_solubility
[13] = Protein binding in mouse plasma at 10 uM measured after 4 hrs by LC-MS/MS analysis; assay type: ADME, cell-free; conditions: read-out: PPB (converted)
[14] = Dose normalized AUClast in Sprague-Dawley rat at 10 mg/kg, po administered via gavage by UPLC-MS analysis; assay type: ADME, organism-based; conditions: in vivo
Mus musculus = test: In vivo inhibition of HIF-2alpha in SCID Beige mouse xenografted with human 786-O cells assessed as reduction in cyclin D1 mRNA expression at 10 mg/kg, po administered twice daily via gavage for 3 days measured 12 hrs post-last dose by qRT-PCR analysis; assay type: functional, organism-based
[15] = Drug metabolism in po dosed dog urine assessed as PT2639 formation; assay type: ADME, organism-based, Canis lupus familiaris; conditions: in vivo
[16] = Drug level in plasma of SCID Beige mouse xenografted with human 786-O cells at 10 mg/kg, po administered twice daily via gavage for 3 days measured 12 hrs post-last dose; assay type: ADME, organism-based
[17] = Dose normalized AUClast in monkey at 10 mg/kg, po administered via gavage by UPLC-MS analysis; assay type: ADME, organism-based, Macaca mulatta; conditions: rhesus monkey, in vivo
[18] = Dose normalized AUClast in Beagle dog at 5 mg/kg, po administered via gavage by UPLC-MS analysis; assay type: ADME, organism-based, Canis lupus familiaris; conditions: in vivo
[19] = target: T3, Endothelial PAS domain-containing protein 1 (Homo sapiens, UniProt Q99814); test: Inhibition of N-(3-Chlorophenyl-4,6-t2)-4-nitrobenzo[c][1,2,5]oxadiazol-5-amine binding to his-tagged HIF-2alpha PAS-B domain (unknown origin) measured after 1 hr by scintillation proximity assay
[20] = target: T3, Endothelial PAS domain-containing protein 1
Description: Inhibition of HIF-2alpha (unknown origin) expressed in human 786-O cells measured after 24 hrs by one-glo luciferase reporter gene assay

BCRP (ABCG2) = BCRP (ABCG2) (Homo sapiens, UniProt Q9UNQ0); test: Substrate activity at BCRP (unknown origin) expressed in MDCK2 cells assessed as efflux ratio of permeability at up to 300 uM; assay type: ADME, cell-based
[21] = Drug level in human hepatocytes treated with PT2385 assessed as metabolite formation by HPLC-UV analysis; assay type: ADME, cell-based, Hepatocyte
[22] = Drug metabolism in iv or po dosed dog assessed as PT2385 formation; assay type: ADME, organism-based, Canis lupus familiaris; conditions: in vivo
[23] = target: T4, ATP-binding cassette sub-family C member 2 (Homo sapiens, UniProt Q92887); test: Ratio of compound effect for substrate activity at human MRP2 expressed in Sf9 membrane vesicles assessed as protein-mediated drug uptake in presence of ATP to compound effect for substrate activity at human MRP2 expressed in Sf9 membrane vesicles assessed as protein-mediated drug uptake in absence of ATP; assay type: ADME, cell membranes
MRP2 (ABCC2) = MRP2 (ABCC2) (Homo sapiens, UniProt Q92887); test: Substrate activity at human MRP2 expressed in Sf9 membrane vesicles assessed as Km; assay type: ADME; conditions: Sf9 membrane vesicles expressing human MRP2
P-gp (ABCB1) = P-gp (ABCB1) (Homo sapiens, UniProt P08183); test: Substrate activity at P-gp (unknown origin) expressed in MDCK2 cells assessed as efflux ratio of permeability at up to 300 uM; assay type: ADME, cell-based; conditions: MDCK-MDR1
[24] = target: T4, ATP-binding cassette sub-family C member 2; test: Substrate activity at human MRP2 expressed in Sf9 membrane vesicles assessed as Vmax per mg protein; assay type: ADME
Beta-glucuronidase = Beta-glucuronidase (Escherichia coli (strain K12), UniProt P05804); test: Drug metabolism assessed as Escherichia coli beta-glucuronidase-mediated PT2385 formation after 30 mins by LC-MS/MS analysis; assay type: ADME; conditions: isolated protein, 0.5 h

T3 sequence (Q99814 whole entry, the tested form may be a part): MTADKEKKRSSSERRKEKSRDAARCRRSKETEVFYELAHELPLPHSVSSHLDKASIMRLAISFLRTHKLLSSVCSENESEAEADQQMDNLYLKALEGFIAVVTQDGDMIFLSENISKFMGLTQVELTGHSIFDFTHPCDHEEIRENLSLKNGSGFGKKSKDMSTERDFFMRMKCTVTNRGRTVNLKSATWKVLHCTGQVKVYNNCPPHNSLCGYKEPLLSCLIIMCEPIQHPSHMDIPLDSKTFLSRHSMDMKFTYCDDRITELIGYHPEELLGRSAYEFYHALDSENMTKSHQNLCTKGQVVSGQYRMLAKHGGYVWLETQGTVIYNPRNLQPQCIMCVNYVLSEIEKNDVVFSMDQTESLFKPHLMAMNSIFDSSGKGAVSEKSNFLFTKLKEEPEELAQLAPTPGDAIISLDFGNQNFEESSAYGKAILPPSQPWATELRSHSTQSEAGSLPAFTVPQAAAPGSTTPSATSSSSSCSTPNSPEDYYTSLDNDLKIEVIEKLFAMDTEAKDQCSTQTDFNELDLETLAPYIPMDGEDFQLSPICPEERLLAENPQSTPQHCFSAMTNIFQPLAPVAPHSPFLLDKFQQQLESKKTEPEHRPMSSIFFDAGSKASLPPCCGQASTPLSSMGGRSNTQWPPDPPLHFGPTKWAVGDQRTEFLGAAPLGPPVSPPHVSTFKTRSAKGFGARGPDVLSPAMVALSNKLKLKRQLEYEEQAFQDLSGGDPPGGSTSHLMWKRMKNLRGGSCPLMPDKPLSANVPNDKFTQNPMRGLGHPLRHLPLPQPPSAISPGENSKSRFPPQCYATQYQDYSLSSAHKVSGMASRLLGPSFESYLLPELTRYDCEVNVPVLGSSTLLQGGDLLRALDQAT
T4 sequence (Q92887 whole entry): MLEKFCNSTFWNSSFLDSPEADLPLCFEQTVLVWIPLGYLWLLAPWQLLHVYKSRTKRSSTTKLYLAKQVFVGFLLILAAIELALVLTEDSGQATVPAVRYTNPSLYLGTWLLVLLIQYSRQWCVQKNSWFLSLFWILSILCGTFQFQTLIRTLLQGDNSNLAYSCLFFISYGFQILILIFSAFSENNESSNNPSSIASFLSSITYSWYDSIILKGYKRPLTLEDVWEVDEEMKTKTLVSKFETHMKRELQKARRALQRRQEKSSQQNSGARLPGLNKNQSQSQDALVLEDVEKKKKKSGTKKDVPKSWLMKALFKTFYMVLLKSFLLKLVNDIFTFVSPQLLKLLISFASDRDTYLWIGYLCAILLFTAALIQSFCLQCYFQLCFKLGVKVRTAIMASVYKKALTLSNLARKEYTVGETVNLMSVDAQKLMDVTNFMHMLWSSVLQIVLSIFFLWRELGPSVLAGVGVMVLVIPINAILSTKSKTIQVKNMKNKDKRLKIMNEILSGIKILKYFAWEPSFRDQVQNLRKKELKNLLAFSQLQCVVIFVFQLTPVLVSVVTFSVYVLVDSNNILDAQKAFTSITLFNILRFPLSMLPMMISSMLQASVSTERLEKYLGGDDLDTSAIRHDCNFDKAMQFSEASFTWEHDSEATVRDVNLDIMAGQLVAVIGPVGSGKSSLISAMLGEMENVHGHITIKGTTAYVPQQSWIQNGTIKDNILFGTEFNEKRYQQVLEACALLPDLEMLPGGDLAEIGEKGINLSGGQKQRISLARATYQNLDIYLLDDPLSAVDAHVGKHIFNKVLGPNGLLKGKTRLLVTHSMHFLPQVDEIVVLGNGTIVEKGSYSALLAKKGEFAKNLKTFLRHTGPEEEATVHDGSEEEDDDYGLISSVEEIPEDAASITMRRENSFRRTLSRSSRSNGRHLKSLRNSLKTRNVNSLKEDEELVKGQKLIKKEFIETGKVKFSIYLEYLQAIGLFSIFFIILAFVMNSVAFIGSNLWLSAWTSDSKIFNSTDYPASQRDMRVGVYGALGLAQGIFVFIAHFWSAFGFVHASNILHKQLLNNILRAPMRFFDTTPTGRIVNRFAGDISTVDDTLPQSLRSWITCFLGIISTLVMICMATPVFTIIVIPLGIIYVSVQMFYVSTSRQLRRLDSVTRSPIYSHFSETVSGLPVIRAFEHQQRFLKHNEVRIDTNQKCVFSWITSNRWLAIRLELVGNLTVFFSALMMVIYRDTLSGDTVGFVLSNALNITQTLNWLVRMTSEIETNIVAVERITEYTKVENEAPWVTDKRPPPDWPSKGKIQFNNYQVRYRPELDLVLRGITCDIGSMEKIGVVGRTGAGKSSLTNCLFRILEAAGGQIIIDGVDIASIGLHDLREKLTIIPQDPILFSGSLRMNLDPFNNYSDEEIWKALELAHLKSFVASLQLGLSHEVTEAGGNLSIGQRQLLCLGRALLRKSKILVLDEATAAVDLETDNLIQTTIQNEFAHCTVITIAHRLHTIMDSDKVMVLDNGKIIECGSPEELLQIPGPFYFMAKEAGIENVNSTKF
UDP-glucuronosyltransferase 1A3, sequence (P35503 whole entry): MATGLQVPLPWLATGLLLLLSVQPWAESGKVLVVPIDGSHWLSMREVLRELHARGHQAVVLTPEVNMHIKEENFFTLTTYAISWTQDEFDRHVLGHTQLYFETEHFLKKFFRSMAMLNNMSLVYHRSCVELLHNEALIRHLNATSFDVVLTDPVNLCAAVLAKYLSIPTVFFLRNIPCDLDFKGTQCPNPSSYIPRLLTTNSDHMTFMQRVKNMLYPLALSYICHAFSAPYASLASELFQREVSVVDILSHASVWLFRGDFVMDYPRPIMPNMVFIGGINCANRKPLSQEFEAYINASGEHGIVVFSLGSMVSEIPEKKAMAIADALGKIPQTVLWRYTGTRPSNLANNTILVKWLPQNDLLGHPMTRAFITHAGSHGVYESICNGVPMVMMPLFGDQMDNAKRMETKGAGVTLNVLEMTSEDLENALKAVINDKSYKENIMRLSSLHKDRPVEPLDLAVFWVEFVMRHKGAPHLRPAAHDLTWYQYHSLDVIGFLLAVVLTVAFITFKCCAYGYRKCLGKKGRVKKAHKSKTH
P-gp (ABCB1), sequence (P08183 whole entry): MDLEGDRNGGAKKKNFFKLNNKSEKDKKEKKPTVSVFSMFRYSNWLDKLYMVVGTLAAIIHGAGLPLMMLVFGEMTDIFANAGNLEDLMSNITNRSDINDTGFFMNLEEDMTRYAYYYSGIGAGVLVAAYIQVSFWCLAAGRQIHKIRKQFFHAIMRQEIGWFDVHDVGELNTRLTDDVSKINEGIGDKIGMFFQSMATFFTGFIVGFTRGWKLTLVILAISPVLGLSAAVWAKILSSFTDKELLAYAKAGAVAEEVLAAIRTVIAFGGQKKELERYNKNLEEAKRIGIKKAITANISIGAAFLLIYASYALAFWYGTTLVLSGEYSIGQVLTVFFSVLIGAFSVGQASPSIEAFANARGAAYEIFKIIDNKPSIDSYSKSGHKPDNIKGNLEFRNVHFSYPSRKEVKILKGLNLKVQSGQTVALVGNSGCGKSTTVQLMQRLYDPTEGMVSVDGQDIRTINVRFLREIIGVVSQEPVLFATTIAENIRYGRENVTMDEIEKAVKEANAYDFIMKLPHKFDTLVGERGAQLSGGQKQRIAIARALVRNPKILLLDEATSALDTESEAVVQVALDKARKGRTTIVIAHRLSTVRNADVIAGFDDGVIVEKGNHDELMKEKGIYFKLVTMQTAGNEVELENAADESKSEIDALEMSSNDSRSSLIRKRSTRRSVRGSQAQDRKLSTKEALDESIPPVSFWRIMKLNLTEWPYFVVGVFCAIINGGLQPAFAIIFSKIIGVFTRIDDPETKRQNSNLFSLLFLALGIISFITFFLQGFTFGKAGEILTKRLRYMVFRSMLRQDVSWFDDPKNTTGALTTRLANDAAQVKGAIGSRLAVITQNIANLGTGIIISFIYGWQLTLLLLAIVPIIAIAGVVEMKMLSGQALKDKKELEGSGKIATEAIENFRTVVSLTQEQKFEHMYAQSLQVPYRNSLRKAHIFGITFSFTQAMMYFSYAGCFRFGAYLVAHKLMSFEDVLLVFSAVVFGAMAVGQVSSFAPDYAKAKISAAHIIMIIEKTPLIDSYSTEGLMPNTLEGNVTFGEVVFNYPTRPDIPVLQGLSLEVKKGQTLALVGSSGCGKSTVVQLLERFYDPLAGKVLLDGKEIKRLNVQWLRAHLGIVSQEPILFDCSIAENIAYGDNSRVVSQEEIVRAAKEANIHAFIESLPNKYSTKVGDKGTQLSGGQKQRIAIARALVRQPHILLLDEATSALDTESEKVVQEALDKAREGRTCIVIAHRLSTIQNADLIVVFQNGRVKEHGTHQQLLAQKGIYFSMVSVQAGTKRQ
MRP2 (ABCC2), sequence (Q92887 whole entry): as the sequence (Q92887 whole entry) above
BCRP (ABCG2), sequence (Q9UNQ0 whole entry): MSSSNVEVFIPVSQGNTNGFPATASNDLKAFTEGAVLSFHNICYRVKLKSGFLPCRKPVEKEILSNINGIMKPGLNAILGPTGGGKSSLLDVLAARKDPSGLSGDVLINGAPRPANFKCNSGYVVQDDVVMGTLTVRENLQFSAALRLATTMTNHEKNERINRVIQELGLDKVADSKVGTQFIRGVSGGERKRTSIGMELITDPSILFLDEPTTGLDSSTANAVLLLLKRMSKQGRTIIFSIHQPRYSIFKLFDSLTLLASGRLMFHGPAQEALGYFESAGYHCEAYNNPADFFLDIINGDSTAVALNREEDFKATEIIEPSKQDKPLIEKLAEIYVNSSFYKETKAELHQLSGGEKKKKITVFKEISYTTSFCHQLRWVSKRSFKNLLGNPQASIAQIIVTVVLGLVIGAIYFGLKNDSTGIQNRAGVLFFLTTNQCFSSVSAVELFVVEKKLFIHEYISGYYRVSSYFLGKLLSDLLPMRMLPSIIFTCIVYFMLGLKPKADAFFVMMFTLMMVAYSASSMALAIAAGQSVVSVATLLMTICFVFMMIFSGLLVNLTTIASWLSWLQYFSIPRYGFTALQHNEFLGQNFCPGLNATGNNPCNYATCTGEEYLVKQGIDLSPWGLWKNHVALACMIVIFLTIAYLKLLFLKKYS

Row | Compound | Vmax [1] | Km at 1 h, up to 1000 µM (UGT2B17 [2]) | Km at 1 h, 50 µM (UGT2B17 [3]) | Vmax [4] | IC50 [19] | further results
1 | CS(=O)(=O)c1ccc(Oc2cc(F)cc(C#N)c2)c2c1[C@H](O)[C@H](F)C2 | 14 pmol/min | 28 µM | 15 µM | 2.1 pmol/min |  | 
2 | CS(=O)(=O)c1ccc(Oc2cc(F)cc(C#N)c2)c2c1[C@H](O)C[C@H]2F |  |  |  |  | > 10000 nM | 
3 | CS(=O)(=O)c1ccc(Oc2cc(F)cc(C#N)c2)c2c1[C@H](O)CC2 | 3.8 pmol/min | 40 µM | 12 µM | 0.8 pmol/min |  | 
4 | CS(=O)(=O)c1ccc(Oc2cc(F)cc(C#N)c2)c2c1[C@H](O)C(F)(F)[C@@H]2F | 440 pmol/min | 15 µM | 5.5 µM | 72 pmol/min | 9 nM | EC50 [20]: 4 nM
5 | CS(=O)(=O)c1ccc(Oc2cc(F)cc(C#N)c2)c2c1[C@H](O)C[C@@H]2F | 1.4 pmol/min | 130 µM | 12 µM | 0.3 pmol/min | 210 nM | EC50 [20]: 460 nM
6 | CS(=O)(=O)c1ccc(Oc2cc(F)cc(C#N)c2)c2c1[C@H](O[C@@H]1O[C@H](C(=O)O)[C@@H](O)[C@H](O)[C@H]1O)C(F)(F)C2 |  |  |  |  |  | efflux ratio (BCRP (ABCG2)): < 2; Drug metabolism [21]: Metabolite_Detected; Drug metabolism [22]: Metabolite_Detected; Ratio [23]: 32; Km (MRP2 (ABCC2)): 97 µM; efflux ratio (P-gp (ABCB1)): < 2; Vmax [24]: 1230 pmol/min; Drug metabolism (Beta-glucuronidase): Metabolite_Detected

Second part, led by results:

Row | Vmax [1] | Km at 1 h, up to 1000 µM (UGT2B17 [2]) | Km at 1 h, 50 µM (UGT2B17 [3]) | Vmax [4] | IC50 [19] | Compound | further results
7 | 50 pmol/min | 26 µM | 15 µM | 11 pmol/min |  | CS(=O)(=O)c1ccc(Oc2cc(F)cc(C#N)c2)c2c1[C@H](O)[C@@H](F)C2 | 
8 | 280 pmol/min | 20 µM | 11 µM | 49 pmol/min |  | CS(=O)(=O)c1ccc(Oc2cc(F)cc(C#N)c2)c2c1[C@H](O)C(F)(F)C2 | Drug metabolism [5]: Metabolite_Notdetected; inhibition (INH) (Homo sapiens): Active; Activity (786-0): Active; concentration at 12 h [6]: 860 ng/mL; logD [7]: 2.2; Drug metabolism [8]: Metabolite_Notdetected; fraction unbound at 4 h, 10 µM [9]: 0.18; AUClast/dose [10]: 21 µM·h; Drug metabolism [11]: Metabolite_Detected; solubility thermodynamic [12]: 15 µg/mL (≈ 39.1 µM); fraction unbound at 4 h, 10 µM [13]: 0.29; AUClast/dose [14]: 5.1 µM·h; inhibition (Mus musculus): Active; Drug metabolism [15]: Metabolite_Detected; concentration at 12 h [16]: 260 ng/mL; AUClast/dose [17]: 3.1 µM·h; AUClast/dose [18]: 7.2 µM·h
